{
  "source": "paper PMC5494963",
  "about": "(Chemical research in toxicology, 2011)",
  "molecular_target": "cytochrome c oxidase (complex IV) (Bos taurus, UniProt P00396)",
  "assay": "spectrophotometric ferrocytochrome c oxidation at […] nm",
  "format": "biochemical",
  "note": "pKi: −log10 of the molar value.",
  "data": [
    {"smiles": "S", "note": "[sulfide]", "values": [
      {"measurement": "pKi", "value": 7.07}
    ]}
  ]
}
